Experimental data from ChEMBL document CHEMBL1201862, “PubChem BioAssay data set” (2004).
Activity calls are given as the source filed them.

Tests used:
[1] = target: Lysine-specific demethylase 4C (Homo sapiens, UniProt Q9H3R0); experiment: GASC-1 (JMJD2C) histone demethylase inhibitors, dose response, biochemical, DELFIA europium, cherry-picked samples (AID 488835); type: functional
[2] = target: Cytochrome P450 2C19 (Homo sapiens, UniProt P33261); experiment: Cytochrome panel assay with activity outcomes. Panel member name: p450-cyp2c19 Compounds with AC50 equal or less than 10 uM are considered active; type: functional; conditions: read-out: AC50
[3] = target: Cytochrome P450 2C9 (Homo sapiens, UniProt P11712)
[4] = target: Cytochrome P450 2D6 (Homo sapiens, UniProt P10635);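 note: CYP2D6 member of a cytochrome P450 panel assay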
[5] = system: INS1; experiment: beta cell apoptosis inhibitors, cytokine rescue, dose response, luminescence, retest (AID 449756); type: functional, cell-based; conditions: Rattus norvegicus;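 note: cell death triggered by IL-1 beta plus TNF-alpha plus IFN-gamma mixture; protective hits raise ATP signal compared with cytokine alone wells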
[6] = target: T1, Replicative DNA helicase DnaB (Mycobacterium tuberculosis, UniProt P9WMR3); experiment: DnaB intein splicing inhibitors, dose response, biochemical, cell-free fluorescence (AID 449749); type: functional
T1 sequence (P9WMR3 whole entry): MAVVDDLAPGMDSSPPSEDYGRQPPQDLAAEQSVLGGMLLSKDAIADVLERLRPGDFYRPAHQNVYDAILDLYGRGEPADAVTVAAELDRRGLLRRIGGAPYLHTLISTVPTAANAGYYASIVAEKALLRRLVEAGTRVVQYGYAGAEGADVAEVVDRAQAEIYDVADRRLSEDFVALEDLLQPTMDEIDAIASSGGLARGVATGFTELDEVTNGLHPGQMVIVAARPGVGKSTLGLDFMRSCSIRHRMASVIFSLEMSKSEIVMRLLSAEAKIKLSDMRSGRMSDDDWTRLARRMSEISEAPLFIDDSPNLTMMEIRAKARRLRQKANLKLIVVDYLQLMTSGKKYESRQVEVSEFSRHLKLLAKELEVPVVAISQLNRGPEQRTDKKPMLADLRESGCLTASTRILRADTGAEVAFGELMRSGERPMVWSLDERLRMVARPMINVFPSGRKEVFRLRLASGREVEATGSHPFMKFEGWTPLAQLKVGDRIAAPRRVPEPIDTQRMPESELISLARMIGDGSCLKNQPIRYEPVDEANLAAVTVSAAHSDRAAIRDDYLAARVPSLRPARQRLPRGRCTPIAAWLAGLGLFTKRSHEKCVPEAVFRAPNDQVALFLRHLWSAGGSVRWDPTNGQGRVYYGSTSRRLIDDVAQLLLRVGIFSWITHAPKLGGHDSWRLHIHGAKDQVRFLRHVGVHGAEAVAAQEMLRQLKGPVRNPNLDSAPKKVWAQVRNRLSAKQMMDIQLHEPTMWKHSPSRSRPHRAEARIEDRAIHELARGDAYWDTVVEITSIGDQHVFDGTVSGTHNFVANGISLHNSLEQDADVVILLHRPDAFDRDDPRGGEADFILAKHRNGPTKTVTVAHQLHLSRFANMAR

[7] = Luminescence Cell-Based Dose Response HTS to Identify Inhibitors of 5'UTR Stem-Loop Driven Prion Protein mRNA Translation in H4 Neuroglioblastoma Cells. [Related pubchem assays: 1827 (Project Summary), 1813 (Primary HTS)]; type: functional
[8] = target: T2, Protein RecA (Mycobacterium tuberculosis, UniProt P9WHJ3); experiment: Fluorescence Cell-Free Homogeneous Dose Retest to Identify Inhibitors of RecA-Intein Splicing Activity. [Related pubchem assays (depositor defined):AID2097, AID2223, AID489010, AID492950]; type: functional
T2 sequence (P9WHJ3 whole entry): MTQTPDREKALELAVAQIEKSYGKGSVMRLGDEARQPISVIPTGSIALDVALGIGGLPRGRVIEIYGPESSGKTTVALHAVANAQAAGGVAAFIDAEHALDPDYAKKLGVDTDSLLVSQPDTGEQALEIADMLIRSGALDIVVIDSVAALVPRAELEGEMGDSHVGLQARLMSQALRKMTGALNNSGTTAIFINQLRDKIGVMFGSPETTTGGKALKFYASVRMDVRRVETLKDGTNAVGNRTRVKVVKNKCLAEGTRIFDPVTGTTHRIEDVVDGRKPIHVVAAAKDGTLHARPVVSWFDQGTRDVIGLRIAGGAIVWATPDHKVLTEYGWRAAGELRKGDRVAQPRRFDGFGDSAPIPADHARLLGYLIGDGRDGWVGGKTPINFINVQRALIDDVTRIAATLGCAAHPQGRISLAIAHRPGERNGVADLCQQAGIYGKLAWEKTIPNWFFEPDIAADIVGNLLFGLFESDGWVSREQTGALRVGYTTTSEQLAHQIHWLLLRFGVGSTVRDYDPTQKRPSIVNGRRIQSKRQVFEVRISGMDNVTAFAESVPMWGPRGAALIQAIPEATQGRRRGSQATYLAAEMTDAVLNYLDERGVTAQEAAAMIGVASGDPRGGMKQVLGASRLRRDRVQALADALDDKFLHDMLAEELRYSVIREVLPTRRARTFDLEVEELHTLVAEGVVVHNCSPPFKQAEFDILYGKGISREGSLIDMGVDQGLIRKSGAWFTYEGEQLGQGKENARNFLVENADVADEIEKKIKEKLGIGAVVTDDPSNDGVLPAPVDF

[9] = NIH-3T3 fibroblast cytotoxicity, dose response, cytotoxicity control, cell-based, fluorescence, Alamar Blue, secondary assay (AID 2327); type: functional;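 note: NIH-3T3 mouse fibroblasts cultured with fluconazole at 8 µg/mL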
[10] = C. albicans growth with fluconazole, confirmation, fluorescence, retest (AID 2467); type: functional, cell-based
[11] = target: T3, Caspase-6 (Homo sapiens, UniProt P55212); experiment: human caspase-6 inhibitors, dose response, biochemical, VEID-R110 fluorescence, cherry-pick (AID 720632)
T3 sequence (P55212 whole entry): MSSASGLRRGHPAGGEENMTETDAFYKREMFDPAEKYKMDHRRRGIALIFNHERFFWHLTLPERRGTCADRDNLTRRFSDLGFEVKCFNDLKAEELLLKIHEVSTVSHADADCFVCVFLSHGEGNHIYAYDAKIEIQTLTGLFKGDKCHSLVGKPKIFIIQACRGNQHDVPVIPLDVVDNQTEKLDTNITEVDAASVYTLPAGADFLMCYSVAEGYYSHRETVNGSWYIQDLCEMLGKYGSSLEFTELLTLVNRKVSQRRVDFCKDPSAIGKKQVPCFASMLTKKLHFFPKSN

[12] = target: Induced myeloid leukemia cell differentiation protein Mcl-1 (Homo sapiens, UniProt Q07820); type: functional
[13] = target: Bifunctional protein GlmU (Mycobacterium tuberculosis, UniProt P9WMN3); experiment: Inhibitors of Mycobacterial Glucosamine-1-phosphate acetyl transferase (GlmU). Secondary screen.; parameters: species or system Mycobacterium tuberculosis H37Rv
[14] = inhibitors of SNCA 5'UTR-driven reporter translation, confirmation, H4 neuroglioma cells, luminescence (AID 1988); type: functional, cell-based
[15] = inhibitors of firefly luciferase expression or activity, dose response, H4 neuroglioma cells, luminescence (AID 1990); type: functional, cell-based
[16] = target: Galanin receptor type 3 (Homo sapiens, UniProt O60755); experiment: Fluorescence-based cell-based primary high throughput dose response assay to identify antagonists of the Galanin Receptor 3 (GalR3).; type: functional
[17] = cells; type: functional, cell-based
[18] = Counterscreen for AddAB inhibitors: absorbance-based bacterial cell-based high throughput dose response assay for inhibitors of bacterial viability. [Related pubchem assays (depositor defined):AID435030, AID449728, AID449731, AID488942, AID488955, AID488956]; type: functional
[19] = cells; type: functional, cell-based; conditions: HEK-CNG
[20] = cells; type: functional, cell-based; remark: listed apart in the source
[21] = target: Exodeoxyribonuclease V (Escherichia coli (strain K12), UniProt P04993+P07648+P08394); experiment: E. coli RecBCD inhibitors, dose response, counter-screen for AddAB inhibitor project, absorbance, V66 E. coli, mutant T4 phage (AID 492957); type: functional, cell-based, Escherichia coli str. K-12 substr. MG1655
[22] = target: T4, Cytochrome P450 1A2 (Homo sapiens, UniProt P05177);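 note: PubChem cytochrome P450 panel assay, CYP1A2 panel member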
T4 sequence (P05177 whole entry): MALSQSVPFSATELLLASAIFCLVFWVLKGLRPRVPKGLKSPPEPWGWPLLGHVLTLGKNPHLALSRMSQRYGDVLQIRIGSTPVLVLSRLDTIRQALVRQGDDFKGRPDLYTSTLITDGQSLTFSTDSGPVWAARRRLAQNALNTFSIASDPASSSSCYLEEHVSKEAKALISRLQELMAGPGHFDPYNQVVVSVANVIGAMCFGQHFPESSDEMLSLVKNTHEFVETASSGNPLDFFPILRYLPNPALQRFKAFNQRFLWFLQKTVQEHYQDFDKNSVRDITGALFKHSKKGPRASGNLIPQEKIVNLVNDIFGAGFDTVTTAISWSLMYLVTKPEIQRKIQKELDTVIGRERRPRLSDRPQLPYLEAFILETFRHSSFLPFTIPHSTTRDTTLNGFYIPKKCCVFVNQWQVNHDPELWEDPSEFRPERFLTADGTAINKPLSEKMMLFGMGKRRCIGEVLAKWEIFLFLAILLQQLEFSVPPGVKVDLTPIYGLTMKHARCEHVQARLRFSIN

[23] = A cytotoxicity screen of small molecule inhibitors of the PhoP region in Salmonella typhi identified in the primary screen. [Related pubchem assays: 1850, 1864, 1985 ]; type: functional
[24] = target: T5, Apoptotic protease-activating factor 1 (Homo sapiens, UniProt O14727); type: functional
T5 sequence (O14727 whole entry): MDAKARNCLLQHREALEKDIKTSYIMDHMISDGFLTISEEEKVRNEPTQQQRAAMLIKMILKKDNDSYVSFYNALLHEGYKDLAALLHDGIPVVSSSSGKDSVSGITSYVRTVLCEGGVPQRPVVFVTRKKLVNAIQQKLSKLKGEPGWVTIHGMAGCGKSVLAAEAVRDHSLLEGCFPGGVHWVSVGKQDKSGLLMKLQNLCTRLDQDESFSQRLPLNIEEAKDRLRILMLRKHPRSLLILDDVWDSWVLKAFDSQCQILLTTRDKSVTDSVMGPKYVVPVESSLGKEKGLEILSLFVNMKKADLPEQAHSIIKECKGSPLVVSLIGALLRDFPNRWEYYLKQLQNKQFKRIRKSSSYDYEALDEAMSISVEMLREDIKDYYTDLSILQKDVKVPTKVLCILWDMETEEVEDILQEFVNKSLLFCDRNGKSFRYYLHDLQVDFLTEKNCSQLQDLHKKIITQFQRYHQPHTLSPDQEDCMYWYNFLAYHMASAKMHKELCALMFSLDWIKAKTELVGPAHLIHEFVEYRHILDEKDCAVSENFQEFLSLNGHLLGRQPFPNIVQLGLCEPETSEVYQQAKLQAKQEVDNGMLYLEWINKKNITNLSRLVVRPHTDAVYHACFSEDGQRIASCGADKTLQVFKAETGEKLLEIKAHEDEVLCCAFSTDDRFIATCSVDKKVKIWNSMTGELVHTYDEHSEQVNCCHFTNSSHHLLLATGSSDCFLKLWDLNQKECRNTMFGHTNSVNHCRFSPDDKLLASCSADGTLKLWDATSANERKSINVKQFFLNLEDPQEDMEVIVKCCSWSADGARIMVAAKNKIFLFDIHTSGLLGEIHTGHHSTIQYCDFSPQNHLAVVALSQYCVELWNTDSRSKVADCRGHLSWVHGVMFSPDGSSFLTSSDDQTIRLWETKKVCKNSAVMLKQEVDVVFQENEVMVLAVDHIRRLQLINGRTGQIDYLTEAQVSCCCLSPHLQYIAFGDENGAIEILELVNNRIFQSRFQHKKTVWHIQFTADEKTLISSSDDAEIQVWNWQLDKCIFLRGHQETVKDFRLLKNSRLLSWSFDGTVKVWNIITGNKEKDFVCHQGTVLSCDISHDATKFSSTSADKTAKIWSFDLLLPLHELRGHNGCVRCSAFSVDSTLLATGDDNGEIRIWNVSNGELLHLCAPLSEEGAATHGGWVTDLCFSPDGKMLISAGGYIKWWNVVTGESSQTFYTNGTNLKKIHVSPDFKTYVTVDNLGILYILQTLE

Chain of Cytochrome P450 2D6 (P10635 whole entry): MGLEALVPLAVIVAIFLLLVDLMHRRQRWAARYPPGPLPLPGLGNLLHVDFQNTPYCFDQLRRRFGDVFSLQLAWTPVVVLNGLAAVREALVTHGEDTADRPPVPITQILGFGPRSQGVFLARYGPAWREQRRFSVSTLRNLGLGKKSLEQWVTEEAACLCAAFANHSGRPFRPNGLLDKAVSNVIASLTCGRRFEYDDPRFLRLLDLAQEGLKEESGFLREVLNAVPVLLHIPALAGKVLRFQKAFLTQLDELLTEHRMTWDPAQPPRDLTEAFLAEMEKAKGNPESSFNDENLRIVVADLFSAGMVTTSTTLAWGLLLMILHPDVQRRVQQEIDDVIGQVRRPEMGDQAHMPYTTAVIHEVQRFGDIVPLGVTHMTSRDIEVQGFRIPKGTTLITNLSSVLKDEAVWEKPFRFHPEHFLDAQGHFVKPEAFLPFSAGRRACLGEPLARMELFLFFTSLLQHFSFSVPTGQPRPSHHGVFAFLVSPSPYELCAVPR
Chain of Lysine-specific demethylase 4C (Q9H3R0 whole entry): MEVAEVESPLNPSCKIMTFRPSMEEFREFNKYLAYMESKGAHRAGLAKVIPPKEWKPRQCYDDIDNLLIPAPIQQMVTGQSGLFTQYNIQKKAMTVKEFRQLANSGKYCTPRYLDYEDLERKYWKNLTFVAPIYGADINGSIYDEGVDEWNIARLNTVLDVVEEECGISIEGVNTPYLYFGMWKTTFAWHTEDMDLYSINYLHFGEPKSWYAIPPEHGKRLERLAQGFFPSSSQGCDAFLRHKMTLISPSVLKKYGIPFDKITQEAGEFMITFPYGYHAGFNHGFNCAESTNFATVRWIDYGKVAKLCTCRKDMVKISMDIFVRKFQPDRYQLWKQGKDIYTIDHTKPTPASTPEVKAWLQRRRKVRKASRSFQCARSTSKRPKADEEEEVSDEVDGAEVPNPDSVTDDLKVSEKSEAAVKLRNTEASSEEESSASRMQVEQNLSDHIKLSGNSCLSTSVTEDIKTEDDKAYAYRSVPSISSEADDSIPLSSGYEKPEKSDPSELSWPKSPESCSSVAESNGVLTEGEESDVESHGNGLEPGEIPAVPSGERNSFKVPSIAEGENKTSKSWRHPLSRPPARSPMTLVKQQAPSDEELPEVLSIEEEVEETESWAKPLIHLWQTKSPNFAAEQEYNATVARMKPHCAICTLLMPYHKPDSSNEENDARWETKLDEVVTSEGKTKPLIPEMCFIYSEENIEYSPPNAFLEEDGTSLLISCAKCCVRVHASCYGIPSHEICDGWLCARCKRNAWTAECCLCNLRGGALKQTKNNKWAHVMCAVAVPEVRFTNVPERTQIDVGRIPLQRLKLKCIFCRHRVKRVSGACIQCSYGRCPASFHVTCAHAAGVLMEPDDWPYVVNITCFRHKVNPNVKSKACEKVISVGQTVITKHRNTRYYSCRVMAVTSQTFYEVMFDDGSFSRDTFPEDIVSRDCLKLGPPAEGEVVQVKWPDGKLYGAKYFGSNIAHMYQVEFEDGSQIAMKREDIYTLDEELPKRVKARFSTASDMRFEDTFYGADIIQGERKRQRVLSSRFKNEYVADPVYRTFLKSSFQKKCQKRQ
Chain of Exodeoxyribonuclease V (P04993 whole entry): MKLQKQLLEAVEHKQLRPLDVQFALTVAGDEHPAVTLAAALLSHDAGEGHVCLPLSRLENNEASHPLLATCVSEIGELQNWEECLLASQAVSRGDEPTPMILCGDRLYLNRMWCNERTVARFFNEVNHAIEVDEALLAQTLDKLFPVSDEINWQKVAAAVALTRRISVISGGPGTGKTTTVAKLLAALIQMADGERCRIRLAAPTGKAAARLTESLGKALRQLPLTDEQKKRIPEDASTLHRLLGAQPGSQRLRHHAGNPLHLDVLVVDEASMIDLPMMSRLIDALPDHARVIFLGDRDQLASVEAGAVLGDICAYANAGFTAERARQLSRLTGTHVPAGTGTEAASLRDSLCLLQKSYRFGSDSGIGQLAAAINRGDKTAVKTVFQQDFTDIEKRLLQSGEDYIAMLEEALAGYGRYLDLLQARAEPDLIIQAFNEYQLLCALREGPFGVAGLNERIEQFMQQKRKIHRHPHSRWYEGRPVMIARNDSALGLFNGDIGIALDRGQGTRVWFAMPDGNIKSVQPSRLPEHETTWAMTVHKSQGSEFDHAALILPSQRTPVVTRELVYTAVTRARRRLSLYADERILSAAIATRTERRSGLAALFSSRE
Chain of Exodeoxyribonuclease V (P07648 whole entry): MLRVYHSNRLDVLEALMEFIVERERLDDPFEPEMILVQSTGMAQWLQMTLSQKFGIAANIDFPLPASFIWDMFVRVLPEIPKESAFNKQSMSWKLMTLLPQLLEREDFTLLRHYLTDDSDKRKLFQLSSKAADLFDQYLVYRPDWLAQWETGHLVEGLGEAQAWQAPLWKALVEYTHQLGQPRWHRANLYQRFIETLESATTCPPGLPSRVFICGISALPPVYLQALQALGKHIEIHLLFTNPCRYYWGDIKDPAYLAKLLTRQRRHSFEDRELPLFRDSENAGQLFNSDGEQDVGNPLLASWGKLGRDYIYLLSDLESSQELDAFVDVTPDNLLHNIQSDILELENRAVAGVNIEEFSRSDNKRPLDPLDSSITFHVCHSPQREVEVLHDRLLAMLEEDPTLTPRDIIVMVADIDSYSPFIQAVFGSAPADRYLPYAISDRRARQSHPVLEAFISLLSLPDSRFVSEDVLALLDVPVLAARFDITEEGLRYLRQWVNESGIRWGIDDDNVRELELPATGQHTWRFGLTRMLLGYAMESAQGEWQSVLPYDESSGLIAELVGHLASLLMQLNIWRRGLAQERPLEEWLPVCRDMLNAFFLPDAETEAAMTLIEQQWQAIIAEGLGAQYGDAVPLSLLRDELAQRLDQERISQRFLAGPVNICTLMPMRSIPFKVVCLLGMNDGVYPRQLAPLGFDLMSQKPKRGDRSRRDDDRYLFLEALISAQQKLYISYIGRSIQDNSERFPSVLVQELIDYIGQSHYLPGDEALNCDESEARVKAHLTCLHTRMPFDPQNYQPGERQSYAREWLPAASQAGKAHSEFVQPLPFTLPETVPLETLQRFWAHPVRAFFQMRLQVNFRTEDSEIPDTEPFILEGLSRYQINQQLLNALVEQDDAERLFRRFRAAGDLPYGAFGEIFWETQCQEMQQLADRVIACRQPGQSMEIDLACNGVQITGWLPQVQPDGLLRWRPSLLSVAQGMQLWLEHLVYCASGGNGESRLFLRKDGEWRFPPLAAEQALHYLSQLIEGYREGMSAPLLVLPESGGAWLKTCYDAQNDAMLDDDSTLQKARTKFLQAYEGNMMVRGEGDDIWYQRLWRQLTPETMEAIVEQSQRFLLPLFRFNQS
Chain of Exodeoxyribonuclease V (P08394 whole entry): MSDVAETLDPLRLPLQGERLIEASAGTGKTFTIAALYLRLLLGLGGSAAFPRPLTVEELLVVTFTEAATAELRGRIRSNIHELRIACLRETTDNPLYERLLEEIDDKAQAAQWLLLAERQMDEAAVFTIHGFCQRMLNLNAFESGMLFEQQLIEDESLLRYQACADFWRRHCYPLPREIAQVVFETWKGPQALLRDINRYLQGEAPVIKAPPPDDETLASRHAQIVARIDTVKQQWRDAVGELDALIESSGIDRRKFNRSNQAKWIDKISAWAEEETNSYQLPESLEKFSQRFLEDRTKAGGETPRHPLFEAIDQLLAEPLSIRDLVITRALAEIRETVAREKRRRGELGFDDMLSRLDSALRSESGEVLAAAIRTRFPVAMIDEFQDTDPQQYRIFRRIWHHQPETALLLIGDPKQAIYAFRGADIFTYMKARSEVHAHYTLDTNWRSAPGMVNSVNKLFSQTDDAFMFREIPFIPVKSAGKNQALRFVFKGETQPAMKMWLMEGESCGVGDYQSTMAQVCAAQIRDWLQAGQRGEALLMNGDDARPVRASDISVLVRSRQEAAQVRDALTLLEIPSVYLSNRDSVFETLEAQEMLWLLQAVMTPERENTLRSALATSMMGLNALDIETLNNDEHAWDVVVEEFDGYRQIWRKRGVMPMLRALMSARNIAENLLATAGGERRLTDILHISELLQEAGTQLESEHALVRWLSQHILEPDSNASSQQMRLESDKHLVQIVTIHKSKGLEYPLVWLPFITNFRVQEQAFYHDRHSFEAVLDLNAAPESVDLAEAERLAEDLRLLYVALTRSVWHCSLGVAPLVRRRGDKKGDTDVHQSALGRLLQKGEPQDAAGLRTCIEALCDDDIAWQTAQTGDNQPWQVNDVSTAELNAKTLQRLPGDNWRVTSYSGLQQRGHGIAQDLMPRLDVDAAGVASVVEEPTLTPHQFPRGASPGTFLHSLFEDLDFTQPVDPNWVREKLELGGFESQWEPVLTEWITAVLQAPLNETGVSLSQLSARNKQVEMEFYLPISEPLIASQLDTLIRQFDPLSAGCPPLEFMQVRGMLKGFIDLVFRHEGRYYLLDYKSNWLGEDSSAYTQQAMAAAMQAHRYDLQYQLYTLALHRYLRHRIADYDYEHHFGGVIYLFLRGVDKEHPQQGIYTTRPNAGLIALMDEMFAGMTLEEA
Chain of Cytochrome P450 2C19 (P33261 whole entry): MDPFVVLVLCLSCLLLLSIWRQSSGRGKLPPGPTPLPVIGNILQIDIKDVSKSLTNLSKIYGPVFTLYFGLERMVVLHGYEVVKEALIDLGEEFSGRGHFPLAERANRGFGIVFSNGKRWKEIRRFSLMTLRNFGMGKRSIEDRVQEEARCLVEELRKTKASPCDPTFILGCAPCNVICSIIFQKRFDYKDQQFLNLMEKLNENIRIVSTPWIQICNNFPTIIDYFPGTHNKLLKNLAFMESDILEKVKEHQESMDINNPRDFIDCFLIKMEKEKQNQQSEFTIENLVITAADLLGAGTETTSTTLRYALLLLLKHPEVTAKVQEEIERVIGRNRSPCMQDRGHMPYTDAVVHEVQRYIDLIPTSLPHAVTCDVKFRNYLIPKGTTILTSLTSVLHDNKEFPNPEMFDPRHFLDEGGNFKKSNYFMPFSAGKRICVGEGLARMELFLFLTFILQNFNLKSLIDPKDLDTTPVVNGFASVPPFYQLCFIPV

SMILES	AC50 [1]	AC50 [2]	AC50 [4]	AC50 [5]	AC50 [6]	EC50 [8]	EC50 [9]	EC50 [10]	IC50 [18]	IC50 [21]	also measured
Cc1ccc2c(c1)N(CC(=O)NCC1CCCO1)C(=O)C(C(C)C)O2 (stereo not given)	11.5 µM (active)										
COc1ccc(C(=O)Nc2cccc(-c3cnc4ccccc4n3)c2)cc1		2.24 µM (inconclusive)	inconclusive								AC50 [3]: 1.78 µM (inconclusive)
O=[N+]([O-])c1cc(/C=N/Nc2nc3ccccc3[nH]2)c(O)cc1O	3.07 µM (active)			0.483 µM (active)	4.22 µM (active)	6.73 µM (active)	> 150 µM (inactive)	2.33 µM (active)			EC50 [7]: 11.2 µM (active); AC50 [11]: 5.37 µM (active); IC50 [12]: 6.08 µM (active); IC50 [13]: 125 µM (active); EC50 [14]: 3.81 µM (active); EC50 [15]: 9.68 µM (inconclusive)
Nc1nonc1-n1nnc(C(=O)N/N=C/c2cc(Br)ccc2O)c1CSC1=NCCS1				0.567 µM (active)			5.49 µM (active)	0.299 µM (active)	> 119 µM (inactive)	> 119 µM (inactive)	IC50 [16]: 1.24 µM (active); EC50 [17]: > 350 µM (not active); EC50 [19]: > 29.9 µM (inactive); EC50 [20]: 12.6 µM (active)
CCc1ccc(N2CC(C(=O)N/N=C/c3cccc([N+](=O)[O-])c3)CC2=O)cc1 (stereo not given)		0.316 µM (inconclusive)	inconclusive								AC50 [22]: 3.16 µM (inconclusive)
CCCCNC1=CC(=O)C(=O)c2ccccc21				1.78 µM (active)	0.575 µM (active)	0.669 µM (active)			> 39.5 µM (inactive)	> 119 µM (inactive)	EC50 [23]: > 50 µM (active); IC50 [24]: 6.49 µM (active)
